Assay results as given in article PMC7719179, “Small molecule inhibition of Dynamin-dependent endocytosis targets multiple niche signals and impairs leukemia stem cells” (Nature Communications, 2020).
“And” between values parts separate entries of the source, which are not always exact repeats. Identical values can stand only once. Like-named read-outs stand apart in the source and are kept apart here.

Assays:
DN3a thymocytes = assay: Relative viability and LC50 on DN3a thymocytes of WT, Lmo2^Tg, Lmo2^Tg;STAT5-CA^Tg and Lmo2^Tg;N1-ICD^Tg mice, 48 h; settings: for viability at 40 µM / viability at 200 µM: Mus musculus, Thymocyte
Procedure: Pre-leukemic and leukemic thymocytes were purified by flow cytometry and co-cultured on GFP-positive OP9 and OP9-DL1 stromal cell lines, as described previously. Thymocytes were co-cultured in reconstituted alpha-MEM medium (#12318, Gibco, Grand Island NY, USA) supplemented with 20% FCS (#12318), HEPES 10 mM (#15630-080), sodium pyruvate 1 mM (#11360-070), β-mercaptoethanol 55 μM (#21985-023), Glutamax 2 mM (#15750-060), 1% Penicillin/Streptomycin (#15140-122), 5 ng/mL rmFLT-3 ligand (#250-31 L, Pepro Tech), 5 ng/mL rmIL-7 (#217-17, Pepro Tech) and 25 ng/mL rmSCF (#250-03, Pepro Tech). After 48 h of co-culture, thymocytes were counted and analysed by FACS. […]
viability of wild-type (WT), Lmo2 Tg, Lmo2Tg;STAT5-CA Tg and Lmo2Tg;N1-ICD Tg DN3a thymocytes […]
normalized to cells treated with vehicle (%DMSO). Mean ± SEM of n=4 biological replicates. b, […]
thymocytes from 6-week old wild-type (WT), Lmo2 Tg, Lmo2Tg;STAT5-CATg and Lmo2Tg ;N1-ICD Tg mice. Mean ± SD of n=4 biological replicates are shown. 2-way ANOVA with Tukey’s correction test; […]
(1 picture or pasted object on this page, not shown here)
*P<0.05, *** P<0.001 compared to WT; #P<0.05, ##P<0.01, ###P<0.001 compared to L mo2Tg. c, Levels of pStat5 (left) after stimulation with IL-7 , as well as Hes1 expression (right) after co-culture on OP9- […]
(0.2 µM), Ruxolitinib (0.2 µM) and DAPT (0.1 µM). Unstimulated cells were used as negative controls (dashed line). Student’s t -test, ** P<0.01, *** P<0.001 compared to unstimulated cells. MFI ± SEM, 1-way ANOVA with Tukey’s correction test; **P<0.01, *** P<0.001 compared to vehicle. d, Clonogenic assay of normal murine hematopoietic stem and progenitor cells (HSPCs) cultured in the presence […]
± SD, Student’s t -test ( n=4) **P<0.01 compared to vehicle. e, Relative viability of wild-type (WT), […]
2 (0.2 µM), Ruxolitinib (0.2 µM) and DAPT (0.1 µM) for 48 hours. Viability was normalized to cells treated with vehicle (%DMSO, which was reported as 100). Mean ± SEM, 2-way ANOVA with Tukey’s correction test, **P<0.01, *** P<0.001 compared to vehicle.

[1] = system: Hes1 in leukemic DN3a cells from primary Lmo2^Tg T-ALL; assay: Notch1 (DL1)-induced Hes1 in leukemic DN3a cells from primary Lmo2^Tg T-ALL; format: cell-based, mouse
Procedure: Phosphoflow analysis was performed as previously described. Briefly, 2 × 10^6 cells stained for surface markers were subsequently resuspended into PBS 1× + 4% v/v paraformaldehyde and incubated for 10 min at 4 °C for fixation. Fixed cells were washed twice using PBS 1×, then resuspended in pre-chilled at −20 °C Perm Buffer III (BD Pharmingen) and incubated 30 min at 4 °C for permeabilization. Cells were washed twice using PBS 1× and incubated overnight at 4 °C in PBS 1× + 2% v/v fetal calf serum (FCS) with Cell Signalling purified antibodies (Genesearch Pty Ltd, Arundel QLD, Australia) against pSTAT5 (Tyr694; #9359), phospho-p38 MAPK (Thr180/Tyr182; #4511), phospho-p44/42 (Erk1/2; #9102), phospho-S6 (Ser235/236; #4856) and phospho-Akt (Ser473; #9271) or isotype control. For intracellular HES1 detection, cells stained for surface markers were subsequently fixed and permeabilized using the BD Cytofix/Cytoperm^TM Kit and incubated overnight at 4 °C in PBS 1× + 2% v/v FCS with a purified antibody against HES1 (D6PU; #11988, Cell Signalling) or isotype control. After staining with primary antibodies for phosphoflow or intracellular detection, cells were incubated in permeabilization buffer with donkey Alexa Fluor 488-conjugated anti-rabbit secondary antibody (A-21206, lot #1910751, Molecular Probes, Invitrogen) or goat Alexa Fluor 546-conjugated anti-rabbit secondary antibody (A-11035, lot #1904467, Molecular Probes, Invitrogen) for 1 h on ice, and washed twice in PBS 1×. Fluorescence-activated cell sorting (FACS) analysis was performed using LSRII and LSR Fortessa cytometers, following the gating strategies described in Supplementary Fig. 11. Cell sorting was performed with a FACSAria or BD Influx.
For in vitro NOTCH1 signalling activation assays, cells were seeded on OP9 and OP9-DL1 stromal cell lines as described in the co-culture assays section and incubated overnight with either Dynole 34-2 or Ruxolitinib or DAPT resuspended in DMSO. Harvested cells were washed twice using cold PBS 1× and incubated with 25 ng/mL Rat IgG (Sigma-Aldrich Pty Ltd, Castle Hill NSW, Australia) with a PE-conjugated antibody for detection of NOTCH1 for 1 h on ice, as described in the FACS analysis section. PE-conjugated isotype was used as negative control. Cells were washed twice, fixed and analysed for intracellular HES1 detection by flow cytometry as described in the FACS analysis section. The analysis was performed in triplicate and the MFI observed in thymocytes co-cultured on OP9 cells was reported as 100%.

[2] = read-out: Relative % viable cells, Lmo2Tg;STAT5-CATg DN3a thymocytes, dose 0.2 mM (so in the source)
[3] = leukemic DN3a cells of TALL249, Notch1 (DL1) stimulation
[4] = leukemic DN3a cells of TALL257, Notch1 (DL1) stimulation
[5] = leukemic DN3a cells of TALL273, Notch1 (DL1) stimulation
[6] = leukemic DN3a cells of TALL582, Notch1 (DL1) stimulation
[7] = leukemic DN3a cells of TALL588, Notch1 (DL1) stimulation
[8] = leukemic DN3a cells of TALL742, Notch1 (DL1) stimulation

Row | SMILES | Survival (% DMSO) (DN3a thymocytes; Lmo2Tg;STAT5-CATg) | viability at 200 µM (DN3a thymocytes; [2]) | Hes1 (MFI) [1, 3] | Hes1, FOLD over unstimulated [1, 3] | Hes1 (MFI) [1, 4] | Hes1, FOLD over unstimulated [1, 4] | Hes1 (MFI) [1, 5] | Hes1, FOLD over unstimulated [1, 5] | Hes1 (MFI) [1, 6] | Hes1, FOLD over unstimulated [1, 6] | Hes1 (MFI) [1, 7] | Hes1, FOLD over unstimulated [1, 7] | Hes1 (MFI) [1, 8] | Hes1, FOLD over unstimulated [1, 8] | also measured
1 | N#CC[C@H](C1CCCC1)n1cc(-c2ncnc3[nH]ccc23)cn1 [Ruxolitinib] | 69.32 % DMSO and 78.95 % DMSO and 73.54 % DMSO | 69.3% | 8215 MFI | 1.09 fold | 8036 MFI | 1.41 fold | 8741 MFI | 1.04 fold | 6452 MFI | 1.20 fold | 8104 MFI | 1.48 fold | 10321 MFI | 1.31 fold | fold resistance of Lmo2^Tg;STAT5-CA^Tg DN3a thymocytes vs Lmo2^Tg DN3a cells (DN3a thymocytes; LC50 comparison, 48 h): 5.3 fold; viability at 40 µM (DN3a thymocytes; read-out: Relative % viable cells, Lmo2Tg DN3a thymocytes, dose 0.04 mM (so in the source)): 88.8%; viability at 40 µM (DN3a thymocytes; read-out: Relative % viable cells, Lmo2Tg;STAT5-CATg DN3a thymocytes, dose 0.04 mM (so in the source)): 95.5%; Survival (% DMSO) (DN3a thymocytes; WT): 39.65 % DMSO and 53.08 % DMSO and 37.17 % DMSO
2 | CCCCCCCCNC(=O)C(C#N)=Cc1cn(CCCN(C)C)c2ccccc12 [Dynole 34-2, 2-Cyano-N-octyl-3-(1-(3-dimethylaminopropyl)-1H-indol-3-yl)-acrylamide] | – | 37.5% | 7095 MFI | 0.94 fold | 5988 MFI | 1.05 fold | 7679 MFI | 0.92 fold | 5082 MFI | 0.94 fold | 7974 MFI | 1.46 fold | 7594 MFI | 0.96 fold | relative resistance conferred by mutations downstream of DDE (STAT5-CA^Tg, N1-ICD^Tg) vs Lmo2^Tg DN3a (DN3a thymocytes; LC50 comparison, 48 h): 3.4 fold; Relative % viable cells (DN3a thymocytes; Lmo2Tg DN3a thymocytes, dose 0.04 mM (so in the source)): 53.38% and 35.26% and 57.31% and 29.03%; Relative % viable cells (DN3a thymocytes; Lmo2Tg DN3a thymocytes, dose 25 mM (so in the source)): 0%; Relative % viable cells (DN3a thymocytes; Lmo2Tg;Notch1Tg DN3a thymocytes, dose 1 mM (so in the source)): 27.05% and 30.53% and 26.36%; Relative % viable cells (DN3a thymocytes; Lmo2Tg;STAT5-CATg DN3a thymocytes, dose 0.04 mM (so in the source)): 60% and 110.87% and 62.94% and 65.19%; Relative % viable cells (DN3a thymocytes; Lmo2Tg;STAT5-CATg DN3a thymocytes, dose 0.2 mM (so in the source)): 40.03% and 50.05% and 55.36%; Relative % viable cells (DN3a thymocytes; Lmo2Tg;STAT5-CATg DN3a thymocytes, dose 25 mM (so in the source)): 0% and 5.23% and 8.65%; Relative % viable cells (DN3a thymocytes; WT DN3a thymocytes, dose 0.04 mM (so in the source)): 81.18% and 50% and 68.95% and 71.06% and 67.17%; Relative % viable cells (DN3a thymocytes; WT DN3a thymocytes, dose 5 mM (so in the source)): 5.59% and 1.77% and 8.44% and 6.33% and 6.38%; Relative % viable cells (DN3a thymocytes; WT DN3a thymocytes, dose 25 mM (so in the source)): 0% and 8.83%; sensitivity of wild-type (WT) DN3a thymocytes relative to pre-LSCs (DN3a thymocytes; WT vs Lmo2^Tg DN3a, result in words): fivefold less sensitive
3 | C[C@H](NC(=O)Cc1cc(F)cc(F)c1)C(=O)N[C@H](C(=O)OC(C)(C)C)c1ccccc1 [DAPT, N-[N-(3,5-Difluorophenacetyl)-L-alanyl]-S-phenylglycine t-butyl ester] | 52.45 % DMSO and 51.11 % DMSO and 34.78 % DMSO | – | 6973 MFI | 0.92 fold | 4801 MFI | 0.84 fold | 7737 MFI | 0.92 fold | 5294 MFI | 0.98 fold | 6134 MFI | 1.12 fold | 7313 MFI | 0.93 fold | fold resistance of Lmo2^Tg;N1-ICD^Tg DN3a cells vs Lmo2^Tg thymocytes (DN3a thymocytes; LC50 comparison, 48 h): 9 fold; Survival (% DMSO) (DN3a thymocytes; Lmo2Tg): 17.19 % DMSO and 25.07 % DMSO and 13.99 % DMSO; Relative % viable cells (DN3a thymocytes; Lmo2Tg DN3a thymocytes, dose 0.02 mM (so in the source)): 79.43% and 55.29% and 67.53%; Relative % viable cells (DN3a thymocytes; Lmo2Tg DN3a thymocytes, dose 0.1 mM (so in the source)): 25.07% and 13.99% and 17.19%; Relative % viable cells (DN3a thymocytes; Lmo2Tg DN3a thymocytes, dose 0.5 mM (so in the source)): 5.42% and 10.32% and 11.23%; Relative % viable cells (DN3a thymocytes; Lmo2Tg DN3a thymocytes, dose 2.5 mM (so in the source)): 5.22% and 9.91% and 8.68%; Relative % viable cells (DN3a thymocytes; Lmo2Tg DN3a thymocytes, dose 12.5 mM (so in the source)): 5.76% and 9.27% and 6.48%; Survival (% DMSO) (DN3a thymocytes; Lmo2Tg;Notch1Tg): 55.35 % DMSO and 68.13 % DMSO and 61.12 % DMSO and 65.99 % DMSO; Relative % viable cells (DN3a thymocytes; Lmo2Tg;Notch1Tg DN3a thymocytes, dose 0.02 mM (so in the source)): 68.73% and 83.56% and 62.24% and 87.12%; Relative % viable cells (DN3a thymocytes; Lmo2Tg;Notch1Tg DN3a thymocytes, dose 0.1 mM (so in the source)): 55.35% and 68.13% and 61.12% and 65.99%; Relative % viable cells (DN3a thymocytes; Lmo2Tg;Notch1Tg DN3a thymocytes, dose 0.5 mM (so in the source)): 52.22% and 56.33% and 58%; Relative % viable cells (DN3a thymocytes; Lmo2Tg;STAT5-CATg DN3a thymocytes, dose 0.02 mM (so in the source)): 76.45% and 84.74% and 59.85%; Relative % viable cells (DN3a thymocytes; Lmo2Tg;STAT5-CATg DN3a thymocytes, dose 0.1 mM (so in the source)): 52.45% and 51.11% and 34.78%; Relative % viable cells (DN3a thymocytes; Lmo2Tg;STAT5-CATg DN3a thymocytes, dose 0.5 mM (so in the source)): 38.67% and 42.63% and 42.16%; Relative % viable cells (DN3a thymocytes; Lmo2Tg;STAT5-CATg DN3a thymocytes, dose 2.5 mM (so in the source)): 27.14% and 38.85% and 21.86%; Relative % viable cells (DN3a thymocytes; Lmo2Tg;STAT5-CATg DN3a thymocytes, dose 12.5 mM (so in the source)): 19.43% and 16.58% and 21.18%
